Reference: ChEMBL document CHEMBL1149934, “(N-acyl-N-alkyl)glycyl borolysine analogs: A new class of potent thrombin inhibitors” (Bioorg Med Chem Lett, 1996)

Legend:
Prothrombin [1] = biological target: T1, Prothrombin (Homo sapiens, UniProt P00734); assay: In vitro for inhibition of thrombin.
Plasminogen = Plasminogen (Homo sapiens, UniProt P00747); assay: In vitro for inhibition of plasmin
[2] = biological target: Tissue-type plasminogen activator (Homo sapiens, UniProt P00750); assay: Compound was tested in vitro for inhibition of tissue plasminogen activator
Sequence of Tissue-type plasminogen activator (P00750 whole entry): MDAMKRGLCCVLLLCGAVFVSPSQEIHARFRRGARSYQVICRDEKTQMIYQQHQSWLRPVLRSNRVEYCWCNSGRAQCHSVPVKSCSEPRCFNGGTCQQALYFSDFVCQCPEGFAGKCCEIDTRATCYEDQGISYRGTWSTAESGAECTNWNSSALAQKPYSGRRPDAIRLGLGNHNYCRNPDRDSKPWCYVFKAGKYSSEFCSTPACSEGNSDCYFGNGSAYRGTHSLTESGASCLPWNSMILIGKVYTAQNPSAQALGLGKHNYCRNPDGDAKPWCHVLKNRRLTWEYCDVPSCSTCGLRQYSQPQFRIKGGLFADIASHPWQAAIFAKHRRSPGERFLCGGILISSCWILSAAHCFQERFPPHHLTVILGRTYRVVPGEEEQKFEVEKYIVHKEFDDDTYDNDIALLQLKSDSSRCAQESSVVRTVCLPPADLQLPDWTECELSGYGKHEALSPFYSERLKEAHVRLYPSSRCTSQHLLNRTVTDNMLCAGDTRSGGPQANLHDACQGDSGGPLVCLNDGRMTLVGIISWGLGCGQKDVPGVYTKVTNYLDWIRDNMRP

Serine protease 1 = Serine protease 1 (Homo sapiens, UniProt P07477); assay: Compound was tested in vitro for inhibition of trypsin
Sequence of Serine protease 1 (P07477 whole entry): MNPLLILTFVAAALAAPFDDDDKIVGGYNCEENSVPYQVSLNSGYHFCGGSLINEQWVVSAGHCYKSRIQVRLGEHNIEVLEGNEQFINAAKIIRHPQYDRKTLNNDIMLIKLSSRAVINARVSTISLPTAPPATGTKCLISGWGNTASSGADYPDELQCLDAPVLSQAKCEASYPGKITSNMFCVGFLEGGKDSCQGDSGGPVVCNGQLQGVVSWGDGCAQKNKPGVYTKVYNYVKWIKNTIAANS

Prothrombin [3] = biological target: T1, Prothrombin; assay: Compound was tested in vitro for inhibition of thrombin

Sequence of Plasminogen (P00747 97-580 limits assumed): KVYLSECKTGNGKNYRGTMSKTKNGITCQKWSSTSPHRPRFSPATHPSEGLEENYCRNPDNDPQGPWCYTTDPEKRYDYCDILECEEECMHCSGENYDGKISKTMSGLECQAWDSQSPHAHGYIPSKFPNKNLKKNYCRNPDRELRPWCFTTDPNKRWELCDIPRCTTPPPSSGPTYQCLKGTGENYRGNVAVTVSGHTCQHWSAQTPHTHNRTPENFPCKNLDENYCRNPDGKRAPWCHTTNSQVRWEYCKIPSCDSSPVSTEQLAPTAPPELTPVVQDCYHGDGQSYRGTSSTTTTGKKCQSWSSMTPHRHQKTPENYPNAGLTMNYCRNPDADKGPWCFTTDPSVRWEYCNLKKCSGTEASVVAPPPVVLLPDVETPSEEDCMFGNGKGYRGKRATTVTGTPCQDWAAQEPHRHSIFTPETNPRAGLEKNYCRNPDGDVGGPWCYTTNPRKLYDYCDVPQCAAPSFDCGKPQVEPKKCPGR
Sequence of Plasminogen (P00747 581-810 limits assumed): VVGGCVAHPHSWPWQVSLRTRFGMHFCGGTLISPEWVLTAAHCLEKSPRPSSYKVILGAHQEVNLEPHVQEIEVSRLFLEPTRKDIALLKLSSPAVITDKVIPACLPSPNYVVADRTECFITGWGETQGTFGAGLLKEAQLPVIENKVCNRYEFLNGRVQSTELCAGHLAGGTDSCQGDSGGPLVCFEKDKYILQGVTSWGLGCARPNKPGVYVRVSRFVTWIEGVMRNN

SMILES	Ki (Prothrombin [1])	Ki (Plasminogen)	Ki [2]	Ki (Serine protease 1)	IC50 (Prothrombin [3])
CN(CC(=O)N[C@@H](CCCCN)B(O)O)C(=O)Cc1ccccc1	16 nM	–	–	–	–
NCCCC[C@H](NC(=O)CN(Cc1ccccc1)C(=O)CCc1ccccc1)B(O)O	4.68 nM	–	–	–	–
NCCCC[C@H](NC(=O)CN(C(=O)CCc1ccccc1)c1ccccc1)B(O)O	1.4 nM	230 nM	280 nM	–	–
CC(=O)N[C@H](Cc1ccccc1)C(=O)N1CCC[C@H]1C(=O)N[C@@H](CCCN=C(N)N)B(O)O	–	5.1 nM	5.7 nM	0.045 nM	–
NCCCC[C@H](NC(=O)CN(C(=O)CCc1ccccc1)C1CC1)B(O)O	0.69 nM	160 nM	750 nM	1.1 nM	–
CN(CC(=O)N[C@@H](CCCCN)B(O)O)C(=O)c1ccccc1	123 nM	–	–	–	–
CN(CC(=O)N[C@@H](CCCCN)B(O)O)C(=O)CCc1ccccc1	1.71 nM	250 nM	3800 nM	2.8 nM	–
NCCCC[C@H](NC(=O)CNC(=O)CCc1ccccc1)B(O)O	–	–	–	–	90000 nM
CN(CC(=O)N[C@@H](CCCCN)B(O)O)C(=O)CCCc1ccccc1	5.4 nM	–	–	–	–
CC(C)N(CC(=O)N[C@@H](CCCCN)B(O)O)C(=O)CCc1ccccc1	1.6 nM	140 nM	3370 nM	3.8 nM	–
NCCCC[C@H](NC(=O)CN(C(=O)CCc1ccccc1)C1CCCCC1)B(O)O	4.9 nM	250 nM	1100 nM	8.4 nM	–
CN=C(N)NCCC[C@H](NC(=O)CN(C)C(=O)CCc1ccccc1)B(O)O	2.1 nM	14000 nM	–	18 nM	–
CN(CC(=O)N[C@@H](CCCN=C(N)N)B(O)O)C(=O)CCc1ccccc1	0.16 nM	460 nM	51 nM	0.61 nM	–
CN(CC(=O)N[C@@H](CCC/N=C\N)B(O)O)C(=O)CCc1ccccc1	9.1 nM	> 10000 nM	7000 nM	21 nM	–
NCCCC[C@H](NC(=O)CN(CCc1ccccc1)C(=O)CCc1ccccc1)B(O)O	0.42 nM	170 nM	680 nM	2.5 nM	–
